Measurements from patent publication US12605541B2, “Stabilized anti-cancer cold atmospheric plasma (CAP)-stimulated media and methods for preparing and using same” (The George Washington University, priority 2015, dated 2026).
Like-named read-outs stand apart in the source and are kept apart here.

Experiments:
MDA-MB-231 cells = test: MTT cell viability of breast cancer cells cultured in CAP-stimulated media; assay type: cell-based, human; details: CAP treatment time 2 minutes, storage at −25° C. for 3 days, FIG. 5e
Experimental: All DMEM and PBS were mixed with 1% (v/v) antibiotic (penicillin and streptomycin) (Thermo Fisher Scientific) before any experiments were performed. […] All cancer cell lines were seeded with a confluence of 3×10^4 cells/mL and a volume of 100 μL in each well on a 96-well plate and were cultured for 6 hours in a complete media composed of Dulbecco's modified Eagle's medium supplemented with 10% (v/v) fetal bovine serum (Thermo Fisher Scientific). and 1% (v/v) antibiotic (penicillin and streptomycin) solution under standard cell culture conditions (a humidified, 37° C., 5% CO2 environment). In each experiment, 6 wells in a single column on the 96-well plate were seeded with cancer cells.
First, the initial culture medium which had been cultured cells for 6 hours was removed before this step. […] In each experiment, 6 wells in a single column on the 96-well plate were seeded with cancer cells. […]
The cancer cells in the 96-well plates were cultured in the 96-well plate under standard cell culture conditions (a humidified, 37° C., 5% CO2 environment) for 3 days. […] The 96-well plate filled with hydrochloric acid containing isopropanol solution was then read by a Hybrid Technology HI microplate reader (BioTek Instruments, Winooski, VT) at a 570 nm of absorbance. […] The average value of measured cell viability from 6 wells was regarded as the cell viability measured from one independent experiment. […]

[1] = for effect of the appearance of the component in DMEM on H2O2 during storage: 3 days of storage at −25° C., FIG. 5d; for effect of the presence of the component in DMEM on H202 in PSM during storage: three days of storage at 8° C., FIG. 3b; for effect of the component on H2O2 in CAP-stimulated PBS during storage: at 8° C. (FIG. 3a) (so in the source)
Experimental: The general research strategy described herein is illustrated in FIG. 1b. I mL of PSM was made by the vertical irradiation on the medium in a well on a 12-well plate. Then, the PSM was transferred to a 1.5 mL centrifuge tube by pipette. The centrifuge tubes were stored in refrigerators with different internal temperatures (8° C. and −25° C.) for 3 days. Additionally, some centrifuge tubes were stored at 22° C., for the investigation of PSM degradation at room temperature. Ultimately, the PSM was either transferred to culture the seeded cancer cells in a 96-well plate or transferred into a black wall 96-well plate to measure for H2O2 concentration. Because PBS is not suitable for cell culture, the protocols used to transfer the CAP-stimulated PBS are slightly different from those used to transfer the CAP-stimulated DMEM.
The protocols to prepare PSM are the same among different experiments. 1 mL of PBS or DMEM (or modified DMEM, such as cysteine/methionine-free DMEM) in a well on a Coming™ Falcon™ 12-well plate was treated by CAP for 1 or 2 minutes. The gap between the end of dielectric plasma tube and the bottom of 12-well plate was 3 cm.
H2O2 containing PBS and H2O2 containing DMEM were prepared by adding 30 wt¾ H2O2 solution to PBS and DMEM, respectively.
The amino acid(s) containing PBS, calcium containing PBS, magnesium containing PBS, glucose containing PBS, phenol red containing PBS, and amino acid(s) containing DMEM were prepared by adding and dissolving specific amino acid(s), calcium chloride solution, magnesium chloride solution, D-glucose, phenol red solution or an amino acid derivative (such as 3-nitro-L-tyrosine) in PBS and DMEM, respectively. With the exception of PBS and DMEM, the added components were purchased from Sigma Aldrich.
50 μL of CAP-stimulated medium or PBS to be analyzed for H2O2 concentration was transferred to a well on a black-wall Coming™ Falcon™ 96-well clear bottom plate in triplicate. Subsequently, according to standard protocols provided by Sigma Aldrich (St. Louis, MO), the H2O2 concentration in the cold plasma-stimulated medium was measured as follows. First, 50 μL of red peroxidase substrate stock solution, 200 μL of peroxidase stock solution, and 4.75 ml of assay buffer were mixed to prepare H2O2 probe solution. 50 μL of probe solution was then added in the black 96-well plate and mixed with 50 μL of the CAP-stimulated medium or PBS. After 30 min of storage at the room temperature, with protecting from light, a Hybrid Technology HI microplate reader (BioTek Instruments, Winooski, VT) was used to measure the fluorescence with an excitation wavelength at 540 nm and an emission wavelength at 590 nm. The final measured fluorescent strength of the experimental group was obtained by deducting the measured fluorescence of the control group from the measured fluorescence of the experimental group. The standard H202 solution was used to prepare the standard H202 concentration-fluorescence curve. Based on this standard curve, we obtained the H202 concentration in CAP-stimulated medium or PBS. The triplicate experiments were independently repeated for three times

| SMILES | effect of the appearance of the component in DMEM on the anti-cancer capacity of PSM (MDA-MB-231 cells) | effect of the component on H2O2 degradation in CAP-stimulated PBS during freezing storage [1] | effect of the component on H202 degradation in CAP-stimulated PBS-based solution [1] | effect of the appearance of the component in DMEM on H2O2 during storage [1] | effect of the presence of the component in DMEM on H202 in PSM during storage [1] | effect of the component on H2O2 in CAP-stimulated PBS during storage [1] | effect of the component on H2O2 degradation in CAP-stimulated PBS during freezing storage ([1]; storage at −25° C., FIG. 5c) |
| --- | --- | --- | --- | --- | --- | --- | --- |
| CSCC[C@H](N)C(=O)O [methionine] | significantly aggravates the degradation | two most reactive components | most significant degradation | complete consumption of H2O2 | noticeable H202 degradation | – | – |
| N[C@@H](Cc1c[nH]c2ccccc12)C(=O)O [tryptophan] | – | aggravate the degradation | – | – | – | inhibit the degradation | – |
| N[C@@H](Cc1ccc(O)cc1)C(=O)O [tyrosine] | – | aggravate the degradation | – | – | – | – | – |
| NCCCC[C@H](N)C(=O)O [lysine] | – | – | – | – | – | inhibit the degradation | aggravate the degradation |
| N[C@@H](CS)C(=O)O [cysteine] | significantly aggravates the degradation | two most reactive components | most significant degradation | complete consumption of H2O2 | noticeable H202 degradation | – | – |
| N[C@@H](Cc1ccccc1)C(=O)O [phenylalanine] | – | – | noticeable degradation | – | – | noticeable H2O2 degradation | – |
